According to publication PMC9254721, “Global update on the susceptibilities of human influenza viruses to neuraminidase inhibitors and the cap-dependent endonuclease inhibitor baloxavir, 2018–2020” (Antiviral research, 2022):
Several values for one entry are separate records, joined by “and”; a condition that tells them apart may be missing. Equal entries are not always repeated.

How the values were obtained:
[1] = system: A(H1N1)pdm09 virus neuraminidase (NA); type: biochemical, influenza A(H1N1)pdm09 virus
[2] = system: A(H3N2) virus neuraminidase (NA); type: biochemical, influenza A(H3N2) virus
[3] = system: recombinant A(H1N1) virus; conditions: PA-A37S in a recombinant A(H1N1) virus; ref Hashimoto et al., 2021; cited from earlier work
[4] = system: influenza viruses; conditions: PA-I38V, PA-E199G alone, when present in other subtypes; ref PA marker table; cited from earlier work
[5] = system: influenza viruses; type: cell-based, influenza virus
[6] = system: A(H1N1)pdm09 viruses; type: cell-based, influenza A(H1N1)pdm09 virus
[7] = system: A(H3N2) viruses; type: cell-based, influenza A(H3N2) virus
[8] = system: B/Victoria-lineage viruses; type: cell-based, influenza B/Victoria-lineage virus
[9] = system: B/Victoria-lineage virus neuraminidase (NA); type: biochemical, influenza B/Victoria-lineage virus

Structure (SMILES): [H]/N=C(\N)N[C@H]1C=C(C(=O)O)O[C@@H]([C@H](OC)[C@H](O)CO)[C@@H]1NC(C)=O [Laninamivir, laninamivir]
- inhibition phenotype (NI/RI/HRI) [1]: RI (key: normal inhibition (NI) is a <10-fold increase in the NAI IC50; RI is a 10- to 100-fold increase; HRI is a >100-fold increase)

Structure (SMILES): CC(=O)N[C@H]1[C@H]([C@H](O)[C@H](O)CO)OC(C(=O)O)=C[C@@H]1N=C(N)N [Zanamivir, zanamivir]
- inhibition phenotype (NI/RI/HRI) [2]: RI (key: normal inhibition (NI) is a <10-fold increase in the NAI IC50; RI is a 10- to 100-fold increase; HRI is a >100-fold increase)

Structure (SMILES): COC(=O)OCOc1c2n(ccc1=O)N([C@@H]1c3ccccc3SCc3c1ccc(F)c3F)[C@@H]1COCCN1C2=O [baloxavir, baloxavir marboxil]
- effect of substitution on baloxavir susceptibility [3]: did not alter baloxavir susceptibility
- effect of substitutions on in vitro baloxavir susceptibility [4]: little or no effect
- change in baloxavir susceptibility [5]: no change
- fold increase in EC50 as compared to the respective median EC50s [5]: < 3 fold
- Fold-change in susceptibility to baloxavir compared to PA sequence-matched control virus [6]: 4.7 [4.1] fold and 2.90 [3.7] fold
- fold increase in EC50 compared to a PA sequence matched control [6]: 4.1 fold
- fold increase in EC50 compared to the respective PA sequence-matched controls [7]: < 3 fold
- EC50 fold-change as compared to reference median EC50 [8]: 0.88 [1.5] fold and 0.6 fold
- Fold-change in susceptibility to baloxavir compared to PA sequence-matched control virus [8]: 0.88 [1.5] fold

Structure (SMILES): CCC(CC)[C@H](NC(C)=O)[C@@H]1[C@H](O)[C@@H](C(=O)O)C[C@H]1N=C(N)N [Peramivir, peramivir]
- IC50 fold-change as compared to reference median IC50 values [2]: 2 fold and 1.5 fold and 1 fold
- IC50 fold-change compared to reference median IC50 values [2]: 2 (1) fold and 1.5 fold and 1 fold

Structure (SMILES): CCOC(=O)C1=C[C@@H](OC(CC)CC)[C@H](NC(C)=O)[C@@H](N)C1 [Oseltamivir, oseltamivir]
- inhibition phenotype (NI/RI/HRI) [2]: RI (key: normal inhibition (NI) is a <10-fold increase in the NAI IC50; RI is a 10- to 100-fold increase; HRI is a >100-fold increase)
- inhibition phenotype (NI/RI/HRI) [9]: RI/HRI
